Laboratory results: patent publication US20150175655A1 (priority 2012, published 2015)
Like-named read-outs stand apart in the source and are kept apart here.

Assays:
[1] = rcm bond, Zhan 1B, DCE
NS3 genotype 3a protease = molecular target: T1, NS3 genotype 3a protease (UniProt Q81258); assay: Ki determination, NS3 protease genotype 3a (fluorogenic depsipeptide substrate); assay type: biochemical, hepatitis C virus; conditions: 200 pM enzyme, 20 μM NS4A peptide, 2 μM substrate, read-out: Ki 3A
T1 construct: Purified NS3 protease domain (amino acids 1-181) of the genotype 1b and 3a virus were generated as above; fused on or other part: N-terminal hexahistidine tag and rTEV protease cleavage site (vector p28-N6H-Tev-NS3(181)3)
T1 sequence (Q81258 1033-1663): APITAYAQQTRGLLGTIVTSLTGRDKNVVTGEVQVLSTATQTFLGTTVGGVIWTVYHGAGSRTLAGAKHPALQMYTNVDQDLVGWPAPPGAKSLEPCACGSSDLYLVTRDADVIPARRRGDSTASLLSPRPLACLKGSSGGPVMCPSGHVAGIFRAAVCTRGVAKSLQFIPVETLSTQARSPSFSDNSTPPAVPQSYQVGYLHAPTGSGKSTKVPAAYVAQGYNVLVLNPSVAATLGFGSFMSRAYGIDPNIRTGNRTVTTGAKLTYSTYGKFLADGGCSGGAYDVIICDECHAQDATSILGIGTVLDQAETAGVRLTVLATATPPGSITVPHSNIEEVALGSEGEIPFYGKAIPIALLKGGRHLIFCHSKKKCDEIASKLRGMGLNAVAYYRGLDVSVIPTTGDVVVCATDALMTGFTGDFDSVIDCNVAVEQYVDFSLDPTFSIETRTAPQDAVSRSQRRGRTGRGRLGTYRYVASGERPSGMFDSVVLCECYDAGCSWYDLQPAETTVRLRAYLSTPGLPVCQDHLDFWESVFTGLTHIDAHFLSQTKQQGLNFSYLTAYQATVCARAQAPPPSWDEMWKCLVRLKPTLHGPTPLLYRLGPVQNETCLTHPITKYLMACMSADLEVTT
How it was run: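 Refolded His-tagged NS3 protease domain (aa 1-181, genotype 3a) at 200 pM with 20 μM NS4A peptide was pre-incubated 1 h at RT with inhibitor (100 nM–5 pM, 3-fold), then 2 μM FRET depsipeptide substrate was added in HEPES/40% glycerol/10% DMSO buffer. Steady-state rates over 90-120 min (ex 340/em 490 nm) versus inhibitor concentration gave Ki.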

NS3 genotype 1b protease = molecular target: T2, NS3 genotype 1b protease (Hepatitis C virus genotype 1b, UniProt Q9WMX2, E1202G); assay: Ki determination, NS3 protease genotype 1b (fluorogenic depsipeptide substrate); assay type: biochemical
T2 construct: Purified NS3 protease domain (amino acids 1-181) of the genotype 1b and 3a virus were generated as above; K3 hexahistidine tag (N); rTEV protease cleavage site (N); made in house; host or cells: E. coli BL21AI, pET28 vector p28-N6H-Tev-NS3(181)1b
Description: The coding sequence of the genotype 1b (con-1 strain) HCV NS3 protease domain was PCR amplified from a plasmid encoding the I389luc-ubi-neo/NS3-3′/ET replicon (Reblikon, Mainz, Germany). The 5′-PCR primer was designed to encode an N-terminal K3 hexahistidine tag and to insert an in-frame recombinant Tobacco Etch virus (rTEV) protease cleavage site into the NS3 coding sequence. The resulting DNA fragment was cloned into the pET28 protein expression vector (Invitrogen, Carlsbad, Calif.) yielding the p28-N6H-Tev-NS3(181)1b.
BL21AI bacteria (Invitrogen, Carlsbad, Calif.) were transformed with genotype 1b or 3 NS3 expression vectors and used to inoculate a 20 L fermentation vessel (Sartorius BBI System Inc., Bethlehem, Pa.), containing 18 L of fresh 2YT medium supplemented with 50 μg/mL kanamycin. When cell densities reached an OD600 of 1, the temperature of the cultures was reduced from 37° C. to 28° C. and induction was immediately initiated by the addition of 30 μM ZnSO4, 14 mM L-arabinose and 1 mM Isopropyl β-D-thiogalactoside (IPTG) final concentrations. Cells were harvested by centrifugation four hours post-induction and were stored as frozen pellets at −80° C. prior to NS3 protein purification.
Cell pellets were thawed and resuspended at 10 mL/g cells in lysis buffer containing 50 mM tris pH 7.6, 300 mM NaCl, 0.1% 3-[(3-cholamidopropyl)dimethylammonio]-1-propanesulfonate (CHAPS), 5% glycerol, and 2 mM β-mercaptoethanol. Cell suspensions were then sonicated, filtered through cheesecloth, and passed three times through a microfluidizer at 18,000 pounds/in^2. The resulting lysates were centrifuged at 15500 rpm for 45 minutes and supernatants were loaded onto a HisTrap HP column (GE Lifesciences) pre-equilibrated with five volumes of Ni buffer A (50 mM tris pH 7.6, 300 mM NaCl, 0.1% CHAPS, 5% glycerol, 2 mM β-mercaptoethanol, 50 mM imidazole-HCl). Proteins were eluted with a 0-100% gradient of Ni buffer A plus 500 mM imidazole-HCl and fractions were collected and pooled. The HisTrap pool was diluted 1:10 with SP-A buffer (50 mM tris pH 7.0, 10% glycerol, 2 mM dithiothreitol (DTT)) and loaded onto a HiTrap SP-HP column (GE Lifesciences) equilibrated with SP-A buffer. NS3 protease was eluted with a 0-100% SP-B buffer (SP-A buffer plus 1 M NaCl) gradient. Concentrated pools of NS3-containing SP fractions were aliquoted, snap frozen in liquid nitrogen and stored at −80° C.
Purified NS3 protease domain (amino acids 1-181) of the genotype 1b and 3a virus were generated as above.
Reactions were run at room temperature in buffer consisting of 50 mM HEPES, 40% glycerol, 0.05% Triton X-100, 10 mM DTT, and 10% DMSO. The final assay solutions contained 50 pM NS3 genotype 1b protease or 200 pM genotype 3a protease, 20 μM NS4A peptide, and 4 μM substrate (genotype 1 b) or 2 μM substrate (genotype 3a). Inhibitor concentrations varied from 100 nM to 5 pM in 3-fold dilutions, and no-inhibitor controls were included.
Compound dilutions were made in DMSO at 20× final concentration. Reaction mixtures were prepared in 96-well assay plates. A solution of enzyme and NS4A peptide in assay buffer (25 μL volume with both reagents at 4× final concentration) was mixed with 45 μL assay buffer and 5 μL of either inhibitor or DMSO, and pre-incubated at room temperature for 1 hour. The reaction was started by addition of 25 μL substrate solution at 4× final concentration. Plates were mixed vigorously for 5-10 seconds and reactions were allowed to proceed for 90 minutes. fluorescence was measured every 30 s between 90 and 120 minutes reaction time using a Tecan InfiniTe M1000 or PerkinElmer Envision multimode plate reader with an excitation wavelength of 340 nm and an emission wavelength of 490 nm.
To determine the K, rates were plotted as a function of inhibitor concentration, and the data were fit with equation 1 (Morrison, J. F., Biochimica et Biophysica Acta 1969, 185, 269-286) to calculate Ki^app using GraphPad Prism 5.

[2] = system: genotype 1b transient HCV replicon, NS3/4a protease inhibitor resistant variant D168A, in Huh-7-derived cells; assay: Transient-transfected HCV replicon EC50, genotype 1b D168A; assay type: cell-based; conditions: Hepatitis C virus, 72 h, read-out: EC50 1B D168A
[3] = system: genotype 1a transient HCV replicon, NS3/4a protease inhibitor resistant variant R155K, in Huh-7-derived cells; assay: Transient-transfected HCV replicon EC50, genotype 1a R155K; assay type: cell-based; conditions: Hepatitis C virus, 72 h, read-out: EC50 1A R155K
[4] = system: genotype 1b (Con1) wild-type transient HCV replicon in Huh-7-derived cells; assay: Transient-transfected HCV replicon EC50, genotype 1b wild type; assay type: cell-based; conditions: Hepatitis C virus; transient-transfected replicon genotype 1b wild type, 72 h; read-out: EC50 1B WT
[5] = system: genotype 1a (H77) wild-type transient HCV replicon in Huh-7-derived cells; assay: Transient-transfected HCV replicon EC50, genotype 1a wild type; assay type: cell-based; conditions: Hepatitis C virus; transient-transfected replicon genotype 1a wild type, 72 h; read-out: EC50 1A WT

SMILES: COc1ccc2nc3c(nc2c1)O[C@H]1CN(C(=O)[C@H](C(C)(C)C)NC(=O)O[C@@H]2C[C@@H]4C[C@@H]4[C@H]2CCCC=C3)[C@H](C(=O)OC(C)(C)C)[C@@H]1C
- ring closure, yield of all isomers ([1]; from C=CCCCC1C(OC(=O)N[C@H](C(=O)N2C[C@H](Oc3nc4cc(OC)ccc4nc3C=C)[C@@H](C)[C@H]2C(=O)OC(C)(C)C)C(C)(C)C)CC2CC21, 2.91 mM, 85.0 °C, 1.75 h): 33.1%

SMILES: CC[C@@H]1[C@@H]2CN(C(=O)[C@H](C(C)(C)C)NC(=O)O[C@@H]3[C@H]4CC[C@H](C4)[C@H]3CCCC=Cc3nc4ccc(OC)cc4nc3O2)[C@@H]1C(=O)OC(C)(C)C
- ring closure, yield of all isomers ([1]; from C=CCCCC1C2CCC(C2)C1OC(=O)N[C@H](C(=O)N1C[C@H](Oc2nc3cc(OC)ccc3nc2C=C)[C@@H](CC)[C@H]1C(=O)OC(C)(C)C)C(C)(C)C, 4.0 mM, 100.0 °C, 0.75 h): 45.2%

SMILES: COC(=O)[C@@H]1[C@H](C2CC2)[C@@H]2CN1C(=O)[C@H](C(C)(C)C)NC(=O)O[C@@H]1C[C@H]1CCCC=Cc1nc3ccc(OC)cc3nc1O2
- ring closure, yield of all isomers ([1]; from C=CCCC[C@@H]1C[C@H]1OC(=O)N[C@H](C(=O)N1C[C@H](Oc2nc3cc(OC)ccc3nc2C=C)[C@@H](C2CC2)[C@H]1C(=O)OC)C(C)(C)C, 4.96 mM, 83.0 °C, 0.83 h): 39%

SMILES: COc1ccc2nc3c(nc2c1)O[C@H]1CN(C(=O)[C@H](C(C)(C)C)NC(=O)O[C@@H]2CCC[C@H]2CCCC=C3)[C@H](C(=O)OC(C)(C)C)[C@@H]1C
- ring closure, yield of all isomers ([1]; from C=CCCC[C@@H]1CCC[C@H]1OC(=O)N[C@H](C(=O)N1C[C@H](Oc2nc3cc(OC)ccc3nc2C=C)[C@@H](C)[C@H]1C(=O)OC(C)(C)C)C(C)(C)C, 4.97 mM, 83.0 °C, […]): 78.5%

SMILES: CC[C@@H]1[C@@H]2CN(C(=O)[C@H](C(C)(C)C)NC(=O)O[C@@H]3C[C@H]3CC/C=C/C(F)(F)c3nc4ccc(C#N)cc4nc3O2)[C@@H]1C(=O)N[C@]1(C(=O)NS(=O)(=O)C2(C)CC2)C[C@H]1C(F)F [Example 84, (1aR,5S,8S,9S,10R,19E,22aR)-5-tert-butyl-14-cyano-N-[(1R,2R)-2-(difluoromethyl)-1-{[(1-methylcyclopropyl)sulfonyl]carbamoyl}cyclopropyl]-9-ethyl-18,18-difluoro-3,6-dioxo-1,1a,3,4,5,6,9,10,18,21,22,22a-dodecahydro-8H-7,10-methanocyclopropa[18,19][1,10,3,6]dioxadiazacyclononadecino[11,12-b]quinoxaline-8-carboxamide]
- Ki (NS3 genotype 3a protease): 0.08 nM
- Ki (NS3 genotype 1b protease): 0.04 nM

SMILES: CC[C@@H]1[C@@H]2CN(C(=O)[C@H](C3CCCCC3)NC(=O)O[C@@H]3C[C@H]3CCCCCc3nc4ccc(OC)cc4nc3O2)[C@@H]1C(=O)N[C@]1(C(=O)NS(=O)(=O)C2(C)CC2)C[C@H]1C(F)F [Example 16, (1aR,5S,8S,9S,10R,22aR)-5-cyclohexyl-N-[(1R,2R)-2-(difluoromethyl)-1-{[(1-methylcyclopropyl)sulfonyl]carbamoyl}cyclopropyl]-9-ethyl-14-methoxy-3,6-dioxo-1,1a,3,4,5,6,9,10,18,19,20,21,22,22a-tetradecahydro-8H-7,10-methanocyclopropa[18,19][1,10,3,6]dioxadiazacyclononadecino[11,12-b]quinoxaline-8-carboxamide]
- EC50 [2]: 61 nM
- EC50 [3]: 22 nM
- EC50 [4]: 5.8 nM
- EC50 [5]: 9.4 nM
- Ki (NS3 genotype 1b protease): 0.09 nM

SMILES: CC[C@]12C[C@@H]1CCCCCc1nc3ccc(OC)cc3nc1O[C@H]1CN(C(=O)[C@H](C(C)(C)C)NC(=O)O2)[C@H](C(=O)N[C@]2(C(=O)NS(=O)(=O)C3(C)CC3)C[C@H]2C(F)F)[C@@H]1C [Example 42, (1aS,5S,8S,9S,10R,22aS)-5-tert-butyl-N-[(1R,2R)-2-(difluoromethyl)-1-{[(1-methylcyclopropyl)sulfonyl]carbamoyl}cyclopropyl]-1a-ethyl-14-methoxy-9-methyl-3,6-dioxo-1,1a,3,4,5,6,9,10,18,19,20,21,22,22a-tetradecahydro-8H-7,10-methanocyclopropa[18,19][1,10,3,6]dioxadiazacyclononadecino[11,12-b]quinoxaline-8-carboxamide]
- Ki (NS3 genotype 1b protease): 0.1 nM

SMILES: COc1ccc2nc3c(nc2c1)O[C@H]1CN(C(=O)[C@H](C(C)(C)C)NC(=O)O[C@@H]2C[C@H]2CCCCC3)[C@H](C(=O)N[C@]2(C(=O)NS(=O)(=O)C3(C)CC3)C[C@H]2C(F)F)[C@@H]1C [Example 18, (1aR,5S,8S,9S,10R,22aR)-5-tert-butyl-N-[(1R,2R)-2-(difluoromethyl)-1-{[(1-methylcyclopropyl)sulfonyl]carbamoyl}cyclopropyl]-14-methoxy-9-methyl-3,6-dioxo-1,1a,3,4,5,6,9,10,18,19,20,21,22,22a-tetradecahydro-8H-7,10-methanocyclopropa[18,19][1,10,3,6]dioxadiazacyclononadecino[11,12-b]quinoxaline-8-carboxamide]
- EC50 [2]: 24 nM
- EC50 [4]: 1.2 nM
- EC50 [5]: 2.3 nM
